From patent US5612204A, “Biological degradative treatment of chlorine substituted ethylene” (priority 1994, dated 1997)
Read-outs that look alike come from different tables or passages of the source.

Key:
[1] = tested on: Nocardia corallina B-276 (FERM P-4094; FERM BP-5124; ATCC 31338); assay: Reaction rate of degradation of chlorine-substituted substrates (Example 4, Table 1); type: cell-based
Protocol: Experiments were also carried on tetrachloroethylene (perchloroethylene) (PCE) and 1,2-dichloroethane (1,2-DCA).
The initial concentration of each substrate in the liquid phase was selected so as not to exceed 20 mg/l, i.e., the range in which no inhibition on the enzyme reaction is expected. Specifically, the substrate was added in an amount of […] which corresponded to 11.2 mg/l of trichloroethylene in terms of initial concentration in the liquid phase. […] The cell concentration during the reaction was set at 4.0 g/l or 8.0 g/l, and the concentration of the substrate remaining in the gas phase was measured with time in the same manner as in Example 3 and converted to the concentration in the liquid phase, from which the reaction rate was calculated.

[2] = tested on: Nocardia corallina B-276 (FERM P-4094; FERM BP-5124; ATCC 31338); assay: Influence of trichloroethylene concentration on reaction rate of biological oxidation (Example 3); type: cell-based; settings: 35° C.
From the text: In the biological oxidation of trichloroethylene with Nocardia corallina B-276 (FERM […]; FERM BP-5124; ATCC 31338), the influence of the trichloroethylene concentration on the reaction rate was examined as follows.
Nocardia corallina B-276 (FERM P-4094; FERM BP-5124; ATCC 31338) was previously proliferated in the same manner as described in Example 1. The microbial cells collected were suspended in a medium (K2 HPO4 1.74 g, MgSO4 .7H2 O 1.5 g, FeSO4.H2 O 0.05 g, deionized water 1 l; adjusted to pH 8.0) to prepare a cell suspension.
In a 17 ml-volume flask was put 2 ml of the cell suspension, 100 μl of a 10% glucose solution added as an energy source, a varied amount of trichloroethylene added thereto, and the flask sealed and incubated at 35° C. for 5 hours while shaking to allow the cells to act on the trichloroethylene. The cell concentration was 2.44 g/l. A 1 ml aliquot of the gas was taken out every 1 hour from the gas phase of the sealed flask and analyzed by gas chromatography (column: Porapak Q) to measure the gaseous trichloroethylene concentration. The trichloroethylene concentration remaining in the liquid phase was calculated from the gaseous phase trichloroethylene concentration. This calculation was made on the assumption that the partitioning of trichloroethylene between the gas and liquid phases in the vial are obeyed by the partition law.
FIG. 3 is a graph of rate of reduction of liquid phase trichloroethylene concentration plotted against initial trichloroethylene concentration.

[3] = tested on: E. coli JM109 (pDBB-1) (FERM BP-4250), transformant having an alkene monooxygenase gene of Nocardia corallina B-276 origin; assay: Degradation of trichloroethylene by transformant E. coli JM109 (pDBB-1) cell suspension (Example 2); type: cell-based, Escherichia coli; settings: 1 mM trichloroethylene, glucose added, 30° C., 12 hours
Protocol: LB medium (1.5 ml) (a liquid medium containing 10 g of Bacto-trypton, 5 g of Bacto-yeast extract, 10 g of sodium chloride, and deionized water to make 1 l, adjusted to pH 7.2 with a 1N aqueous […] solution, steam sterilized by autoclaving at 120° C. for 15 minutes) containing 50 μg/ml of ampicillin was inoculated with one loopful of E. coli JM109 (pDBB-1) (FERM BP-4250) using a platinum loop, which is a transformant having an alkene monooxygenase gene of Nocardia corallina B-276 origin, and incubated at 37° C. overnight (about 14 hours) for previous proliferation of the microorganism. Then, 100 ml of LB medium containing 50 μg/ml of ampicillin was inoculated with the resulting culture and incubated at 37° C. for 2 hours. To the culture was added isopropyl-β-D-thiogalactopyranoside (IPTG) at a final concentration of 1 mM, followed by further shake culture at 37° C. for 5 hours. A 10 ml aliquot of the resulting culture was centrifuged to collect the microbial cells, which were suspended in 2 ml of a minimal medium (K2 HPO4 1.74 g, MgSO4.7H2 O 1.5 g, FeSO4.H2 O 0.05 g, deionized water 1 l; adjusted to pH 8.0) to prepare a cell suspension. […]

[4] = tested on: Nocardia corallina B-276 (FERM P-4094; FERM BP-5124; ATCC 31338); assay: Degradation of trichloroethylene by Nocardia corallina B-276 cell suspension (Example 1); type: cell-based; settings: 1 mM trichloroethylene, glucose added, 30° C., 12 hours
Protocol: In a 500 ml Sakaguchi's flask was put 100 ml of NBG medium (a liquid medium containing 10 g of Lab-Lemco powder (produced by Oxoid Co., Ltd.), 10 g of bacteriological peptone, 10 g of glucose, 5 g of sodium chloride, and water to make 1 l, adjusted to pH 7.5 with a 1N aqueous sodium hydroxide solution, steam sterilized by autoclaving at 120° C. for 15 minutes) and inoculated with three loopfuls of Nocardia corallina B-276 (FERM P-4094; FERM BP-5124; ATCC 31338) using a platinum loop, followed by shake culture at 30° C. for 96 hours for previous proliferation.
The resulting culture was centrifuged to collect the microbial cells, which were suspended in 50 ml of a minimal medium (K2 HPO4 1.74 g, MgSO4. 7H2 O 1.5 g, FeSO4. H2 O 0.05 g, deionized water 1 l; adjusted to pH 8.0) to prepare a cell suspension. […]
For comparison, 50 ml of a cell-free medium (K2 HPO4 1.74 g, MgSO4.7H2 O 1.5 g, FeSO4. H2 O 0.05 g, deionized water 1 l; adjusted to pH 8.0) was put to a flask of the same volume as used above, and 2.5 ml of a 10% glucose solution and trichloroethylene (final concentration: 1 mM) were added thereto. […] The signal intensity (I2) was 95% or more of the initial signal intensity (I0) measured on the medium immediately after addition of trichloroethylene.

[5] = Cell Concentration 4.0 g/l, initial substrate concentration not exceeding 20 mg/l

Row | Compound | degradability by Nocardia corallina B-276 [1] | Reaction Rate [1, 5] | Reaction Rate ([1]; cell concentration 4.0 g/l) | degradability by Nocardia corallina B-276 ([1]; result in words) | further results
1 | Cl/C=C\Cl [cis-1,2-Dichloroethylene, cis-1,2-dichloroethylene] | can be degraded | 72.2 mg/L/h |  |  | 
2 | Cl/C=C/Cl [trans-1,2-dichloroethylene] | can be degraded | 6.5 mg/L/h | 6.5 mg/l hr |  | 
3 | ClC(Cl)=C(Cl)Cl [Tetrachloroethylene, tetrachloroethylene] |  | 0 mg/L/h |  | cannot be degraded | 
4 | ClCCCl [1,2-Dichloroethane, 1,2-dichloroethane] |  | 0 mg/L/h |  | cannot be degraded | 
5 | C=C(Cl)Cl [1,1-Dichloroethylene, 1,1-dichloroethylene] |  |  |  | can be degraded | Reaction Rate ([1]; Cell Concentration 8.0 g/l, initial substrate concentration not exceeding 20 mg/l): 14.8 mg/L/h; reaction rate, corresponding value (for the cell concentration of the other substrates) ([1]; converted from the 8.0 g/l measurement): 7.4 mg/l hr
6 | ClC=C(Cl)Cl [Trichloroethylene, trichloroethylene] |  | 5.5 mg/L/h | 5.5 mg/l hr |  | Michaelis constant Km of the trichloroethylene substrate ([2]; cell concentration 2.44 g/l, calculated based on the results of FIG. 3): 90.4 mg/L; Km ([2]; cell concentration 2.44 g/l, calculated based on the results of FIG. 3, read-out: Michaelis constant Km of the trichloroethylene substrate): 678 µM; inhibition of the reaction by substrate ([2]; at least up to 90 mg/l of the initial trichloroethylene concentration in the liquid phase): no obvious inhibition; trichloroethylene degraded [3]: about 17%; trichloroethylene concentration remaining in the medium (signal intensity I4 relative to I3) ([3]; sealed flask, gas chromatography): about 83%; trichloroethylene degraded [4]: about 98%; trichloroethylene concentration remaining in the medium (signal intensity I1 relative to I2) ([4]; sealed flask, gas chromatography, relative to cell-free medium): about 2%
